Measured values reported in patent US20240182445A1 (ONO PHARMACEUTICAL CO., LTD., priority 2019, published 2024).
pIC50: −log10 of the molar value.

What was measured:
Format in all cases: cell-based
human TREK-1 [1] = target: T1, human TREK-1 (Homo sapiens, UniProt O95069); experiment: TREK-1 Thallium flux assay, Method 2; settings: measured by Method 2 of TREK1 Thalium flux assay (footnote *12); read-out: Tl+ Assay IC50
T1 construct: expressed in transfected cells
T1 sequence (O95069 1-426): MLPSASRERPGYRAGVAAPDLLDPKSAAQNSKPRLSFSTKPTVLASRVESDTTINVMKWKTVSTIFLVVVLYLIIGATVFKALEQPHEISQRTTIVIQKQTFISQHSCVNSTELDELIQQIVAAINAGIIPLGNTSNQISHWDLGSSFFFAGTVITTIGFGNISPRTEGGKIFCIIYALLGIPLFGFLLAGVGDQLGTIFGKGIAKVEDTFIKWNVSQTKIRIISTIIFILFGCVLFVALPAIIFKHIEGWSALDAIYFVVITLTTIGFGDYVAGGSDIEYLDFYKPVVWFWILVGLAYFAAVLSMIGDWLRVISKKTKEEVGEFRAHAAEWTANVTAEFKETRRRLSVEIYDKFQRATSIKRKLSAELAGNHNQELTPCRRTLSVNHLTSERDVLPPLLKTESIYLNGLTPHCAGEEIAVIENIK
Protocol: CHO-K1 cells stably expressing human TREK-1 were plated in 384-well plates on the day of assay, loaded with Thallos dye. Test compounds or control compound (tert-butyl (3-((4-(benzyloxy)-2-methylphenyl)carbamoyl)-4-chlorophenyl)carbamate) or 0.3% DMSO (vehicle control) were added directly to the cell plates and incubated for 10 min, and then treated with thallium stimulus buffer to initiate thallium flux. To measure the efficacy and potency of test compounds, the change in fluorescence intensity (ΔRatio) and % inhibition were calculated using the following equations:
ΔRatio=(fluorescence intensity at 25 seconds after thallium addition)/(average of fluorescent intensity before thallium addition)

human TREK-1 [2] = target: T1, human TREK-1; experiment: TREK-1 Thallium (Tl+) flux assay, Method 1; settings: TREK-1 Thallium (Tl+) flux assay
Procedure, shortened: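 CHO-K1 cells stably expressing human TREK-1, loaded with Thallos dye, received compound or 0.3% DMSO vehicle for 10 min before thallium stimulus buffer. ΔRatio is fluorescence at 25 s after thallium addition over mean pre-addition fluorescence; % inhibition calculated from it.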

human TREK-1 [3] = target: T1, human TREK-1; experiment: TREK-1 Manual Patch Clamp (hMPC) assay; settings: CHO-K1 cells stably expressing human TREK-1; whole-cell current at 0 mV
Protocol: The term “patch clamp technique” herein refers to the “gold standard” technique for evaluating TREK channel pharmacology. The detail method is described below.
CHO-K1 cells stably expressing human TREK-1 or HEK293 cells stably expressing human TREK-2 are plated on glass coverslips, and voltage clamped in the whole-cell configuration of the patch clamp technique. Cells were voltage clamped at a holding potential of −80 mV and the stepped to 0 mV for 500 msec. The voltage was subsequently ramped from −120 mV to +80 mV over a 500 msec duration. This step-ramp protocol was repeated every 10 sec. The bathing solution contained the following: 135 mM NaCl, 5 mM KCl, 2 mM CaCl2, 1 mM MgCl2, 5 mM D-Glucose, 10 mM HEPES, 10 mM sucrose (adjusted to pH 7.4 with NaOH, 300 mosmol/kg H2O). The pipette solution contained the following: 135 mM KCl, 2 mM MgCl2, 1 mM EGTA, 10 mM HEPES, 2 mM Na2ATP (adjusted to pH 7.35 with KOH, 285 mosmol/kg H2O). Test compounds were dissolved into the bathing solution. Experiments on TREK-2 were terminated with the addition of the control compound (tert-butyl (3-((4-(benzyloxy)-2-methylphenyl)carbamoyl)-4-chlorophenyl)carbamate) so that maximal inhibition could be determined. The effects of test compound on the currents were calculated at 0 mV using the following equations:
For CHO cells expressing TREK-1 channel: % inhibition=(1-post current/pre current)×100
The compounds shown in Table 2 were prepared in an analogous manner with the appropriate starting materials, and evaluated in our TREK-1 Manual Patch Clamp (hMPC) assay.

[4] = values without footnote *12 are Method 1
[5] = no *^12 (Method 2) mark on these rows

SMILES | pIC50 (human TREK-1 [1]) | pIC50 (human TREK-1 [2]; [4]) | pIC50 (human TREK-1 [3]) | pIC50 (human TREK-1 [2]; [5])
Cc1cc(C#Cc2ccccc2)cnc1NC(=O)c1c(Cl)cnn1[C@H]1CCn2nccc2C1 (single isomer, unassigned) [Compound 456, 4-chloro-N-[3-methyl-5-(phenylethynyl)pyridin-2-yl]-1-[(5S)-4,5,6,7-tetrahydropyrazolo[1,5-a]pyridin-5-yl]-1H-pyrazole-5-carboxamide or 4-chloro-N-[3-methyl-5-(phenylethynyl)pyridin-2-yl]-1-[(5R)-4,5,6,7-tetrahydropyrazolo[1,5-a]pyridin-5-yl]-1H-pyrazole-5-carboxamide] | 6.92 | – | – | –
CC(=O)N1CCC(n2ncc(Cl)c2C(=O)Nc2ncc(C#Cc3ccc(F)cc3)cc2C)[C@H](F)C1 (stereo in doubt) [Compound 10, 1-((3R,4R)-1-acetyl-3-fluoropiperidin-4-yl)-4-chloro-N-(5-((4-fluorophenyl)ethynyl)-3-methylpyridin-2-yl)-1H-pyrazole-5-carboxamide] | – | 6.96 | 7.22 | –
Cc1cc(C#Cc2ccccc2)cnc1NC(=O)c1c(Cl)cnn1CC1CCOCC1 [Compound 2, 4-chloro-N-(3-methyl-5-(phenylethynyl)pyridin-2-yl)-1-((tetrahydro-2H-pyran-4-yl)methyl)-1H-pyrazole-5-carboxamide] | – | 6.70 | 7.22 | –
CC(=O)N1CCC([C@H](C)n2ncc(Cl)c2C(=O)Nc2ncc(C#Cc3ccccc3)cc2C)CC1 [Compound 16, (S)-1-(1-(1-acetylpiperidin-4-yl)ethyl)-4-chloro-N-(3-methyl-5-(phenylethynyl)pyridin-2-yl)-1H-pyrazole-5-carboxamide] | – | 7.00 | 6.80 | –
CC(=O)N1CCC(F)(Cn2ncc(Cl)c2C(=O)Nc2ncc(C#Cc3ccccc3)cc2C)CC1 [Compound 15, 1-((1-acetyl-4-fluoropiperidin-4-yl)methyl)-4-chloro-N-(3-methyl-5-(phenylethynyl)pyridin-2-yl)-1H-pyrazole-5-carboxamide] | – | 6.40 | 6.54 | –
CC(=O)N1CCC(n2ncc(Cl)c2C(=O)Nc2ncc(C#Cc3ccc(F)cc3)cc2F)CC1 [Compound 7, 1-(1-acetylpiperidin-4-yl)-4-chloro-N-(3-fluoro-5-((4-fluorophenyl)ethynyl)pyridin-2-yl)-1H-pyrazole-5-carboxamide] | – | 6.85 | 7.52 | –
O=C(Nc1ncc(C#Cc2ccccc2)cc1F)c1c(Cl)cnn1C1CCN(C(=O)C2COCCO2)CC1 (centres unmarked) [Compound 11, 1-(1-(1,4-dioxane-2-carbonyl)piperidin-4-yl)-4-chloro-N-(3-fluoro-5-(phenylethynyl)pyridin-2-yl)-1H-pyrazole-5-carboxamide] | – | 6.92 | 7.00 | –
CC(=O)N1CC(F)(Cn2ncc(Cl)c2C(=O)Nc2ncc(C#Cc3ccccc3)cc2C)C1 [Compound 215, 1-((1-acetyl-3-fluoroazetidin-3-yl)methyl)-4-chloro-N-(3-methyl-5-(phenylethynyl)pyridin-2-yl)-1H-pyrazole-5-carboxamide] | – | – | 6.89 | 6.48
CC(=O)N1CCC(n2ncc(Cl)c2C(=O)Nc2ncc(C#Cc3ccc(F)cc3)cc2C)CC1 [Compound 8, 1-(1-acetylpiperidin-4-yl)-4-chloro-N-(5-((4-fluorophenyl)ethynyl)-3-methylpyridin-2-yl)-1H-pyrazole-5-carboxamide] | – | 6.70 | 7.05 | –
CC(=O)N1CCC(n2ncc(Cl)c2C(=O)Nc2ncc(C#Cc3ccccc3)cc2F)CC1 [Compound 6, 1-(1-acetylpiperidin-4-yl)-4-chloro-N-(3-fluoro-5-(phenylethynyl)pyridin-2-yl)-1H-pyrazole-5-carboxamide] | – | 7.15 | 7.15 | –
O=C(Nc1ncc(C#Cc2ccccc2)cc1F)c1c(Cl)cnn1C[C@H]1COCCO1 [Compound 4, (S)-1-((1,4-dioxan-2-yl)methyl)-4-chloro-N-(3-fluoro-5-(phenylethynyl)pyridin-2-yl)-1H-pyrazole-5-carboxamide] | – | 6.66 | 7.15 | –
CC(=O)N1CC(F)(Cn2ncc(Cl)c2C(=O)Nc2ncc(C#Cc3ccccc3)cc2F)C1 [Compound 140, 1-((1-acetyl-3-fluoroazetidin-3-yl)methyl)-4-chloro-N-(3-fluoro-5-(phenylethynyl)pyridin-2-yl)-1H-pyrazole-5-carboxamide] | – | 6.66 | 6.89 | –
CC(=O)N[C@H]1CC[C@@H](n2ncc(Cl)c2C(=O)Nc2ncc(C#Cc3ccccc3)cc2F)CC1 [Compound 13, 1-(cis-4-acetamidocyclohexyl)-4-chloro-N-(3-fluoro-5-(phenylethynyl)pyridin-2-yl)-1H-pyrazole-5-carboxamide] | – | 6.92 | 7.22 | –
Cc1cc(C#Cc2ccc(F)cc2)cnc1NC(=O)c1c(Cl)cnn1[C@H]1CCOC1 [Compound 322, (S)-4-chloro-N-(5-((4-fluorophenyl)ethynyl)-3-methylpyridin-2-yl)-1-(tetrahydrofuran-3-yl)-1H-pyrazole-5-carboxamide] | – | – | – | 6.20

Other lines, results leading:

pIC50 (human TREK-1 [1]) | pIC50 (human TREK-1 [2]; [4]) | pIC50 (human TREK-1 [3]) | pIC50 (human TREK-1 [2]; [5]) | SMILES
– | 6.85 | 7.70 | – | Cc1cc(C#Cc2ccccc2)cnc1NC(=O)c1c(Cl)cnn1C1CCn2nccc2C1 (centres unmarked) [Compound 9, 4-chloro-N-(3-methyl-5-(phenylethynyl)pyridin-2-yl)-1-(4,5,6,7-tetrahydropyrazolo[1,5-a]pyridin-5-yl)-1H-pyrazole-5-carboxamide]
– | 6.44 | 6.28 | – | Cc1cc(C#Cc2ccccc2)cnc1NC(=O)c1c(Cl)cnn1[C@@H]1CCOC1 [Compound 3, (R)-4-chloro-N-(3-methyl-5-(phenylethynyl)pyridin-2-yl)-1-(tetrahydrofuran-3-yl)-1H-pyrazole-5-carboxamide]
– | 7.15 | 7.22 | – | CC(=O)N1CCC(n2ncc(Cl)c2C(=O)Nc2ncc(C#Cc3ccccc3)cc2C)CC1 [Compound 5, 1-(1-acetylpiperidin-4-yl)-4-chloro-N-(3-methyl-5-(phenylethynyl)pyridin-2-yl)-1H-pyrazole-5-carboxamide]
– | 6.17 | 6.77 | – | Cc1cc(C#Cc2ccccc2)cnc1NC(=O)c1c(Cl)cnn1CC1COCCO1 (centres unmarked) [Compound 1, 1-((1,4-dioxan-2-yl)methyl)-4-chloro-N-(3-methyl-5-(phenylethynyl)pyridin-2-yl)-1H-pyrazole-5-carboxamide]
6.85 | – | – | – | Cc1cc(C#Cc2ccccc2)cnc1NC(=O)c1c(Cl)cnn1[C@@H]1CCN(C(=O)C2CC2)C1 [Compound 455, 4-chloro-1-[(3R)-1-(cyclopropanecarbonyl)pyrrolidin-3-yl]-N-[3-methyl-5-(phenylethynyl)pyridin-2-yl]-1H-pyrazole-5-carboxamide]
– | 6.59 | 8.70 | – | CC(=O)N[C@H]1CC[C@@H](n2ncc(Cl)c2C(=O)Nc2ncc(C#Cc3ccc(F)cc3)cc2C)CC1 [Compound 14, 1-(cis-4-acetamidocyclohexyl)-4-chloro-N-(5-((4-fluorophenyl)ethynyl)-3-methylpyridin-2-yl)-1H-pyrazole-5-carboxamide]
7.43 | – | – | – | Cc1cc(C#Cc2ccccc2)cnc1NC(=O)c1c(Cl)cnn1[C@H]1CCn2nccc2C1 (single isomer, unassigned) [Compound 457, 4-chloro-N-[3-methyl-5-(phenylethynyl)pyridin-2-yl]-1-[(5S)-4,5,6,7-tetrahydropyrazolo[1,5-a]pyridin-5-yl]-1H-pyrazole-5-carboxamide or 4-chloro-N-[3-methyl-5-(phenylethynyl)pyridin-2-yl]-1-[(5R)-4,5,6,7-tetrahydropyrazolo[1,5-a]pyridin-5-yl]-1H-pyrazole-5-carboxamide]
